The record followed here is patent US9650340B2, “5-fluoro-N-(pyridin-2-yl)pyridin-2-amine derivatives containing a sulfoximine group” (BAYER PHARMA AKTIENGESELLSCHAFT, priority 2012, dated 2017).

In brackets after ≈: the same amount, converted by molar mass.

Data set [1] concerns B16F10, mouse melanoma cells. The data set can be described thus: Proliferation assay, B16F10 (crystal violet). The data set is classed as cell-based. As to conditions: B16F10, 4 days; read-out: Inhibition of B16F10 cell proliferation IC50.
Data set [2] deals with HeLa, human cervical tumour cells. The data set can be described thus: Proliferation assay, HeLa (crystal violet). The data set is classed as cell-based. Particulars: 4 days, read-out: Inhibition of HeLa cell proliferation IC50. Put shortly:
(§1)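 Adherent lines (HeLa, NCI-H460 at 3,000 cells/well; HeLa-MaTu-ADR at 5,000) treated 4 days with 0.001-10 μM compound, 0.5% DMSO, 10% FCS; crystal violet at 595 nm, normalised to zero-point plate and untreated cells, IC50 by 4-parameter fit. MOLM-13 (5,000 cells/well) exposed 72 h, viability by Cell Titre-Glo.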

For data set [3], the system named is NCI-H460, human non-small cell lung carcinoma cells. Put plainly: Proliferation assay, NCI-H460 (crystal violet). The class given is cell-based. Particulars: NCI-H460, 4 days; read-out: Inhibition of NCI-H460 cell proliferation IC50. The method in brief:
as §1

A short description of data set [4]: Equilibrium shake flask solubility assay, thermodynamic solubility in citrate buffer pH 4. As to conditions: citrate buffer pH 4, 24 h, room temperature. The class given is physicochemical. As for the experimental part:
4b) Thermodynamic Solubility in Citrate Buffer pH 4
Thermodynamic solubility was determined by an equilibrium shake flask method [Literature: Edward H. Kerns and Li Di (2008) Solubility Methods in: Drug-like Properties: Concepts, Structure Design and Methods, p276-286. Burlington, Mass.: Academic Press].
A saturated solution of the drug was prepared and the solution was mixed for 24 h to ensure that equilibrium has been reached. The solution was centrifuged to remove the insoluble fraction and the concentration of the compound in solution was determined using a standard calibration curve.
To prepare the sample, 1.5 mg solid compound was weighed in a 4 ml glass vial. 1 ml Citrate buffer pH 4 was added. The suspension was put on a stirrer and mixed for 24 hrs at room temperature. The solution was centrifuged afterwards. To prepare the sample for the standard calibration, 0.6 mg solid sample was dissolved in 19 ml acetonitrile/water 1:1. After sonification the solution was filled up with acetonitrile/water 1:1 to 20 ml.
Sample and standards were quantified by HPLC with UV-detection. For each sample two injection volumes (5 and 50 μl) in triplicates were made. Three injection volumes (5 μl, 10 μl and 20 μl) were made for the standard.
The areas of sample- and standard injections as well as the calculation of the solubility value (in mg/l) were determined by using HPLC software (Waters Empower 2 FR).

Data set [5] relates to Caco-2, human colorectal carcinoma cells. The data set can be described thus: Proliferation assay, Caco-2 (crystal violet). The class given is cell-based. Particulars: Caco-2, 4 days; read-out: Inhibition of Caco-2 cell proliferation IC50.
Data set [6] has as its system HeLa-MaTu-ADR, multidrug-resistant human cervical carcinoma cells. The data set can be described thus: Proliferation assay, HeLa-MaTu-ADR (crystal violet). The data set is classed as cell-based. As to conditions: 4 days, read-out: Inhibition of HeLa-MaTu-ADR cell proliferation IC50. Put shortly: as §1
For data set [7], the system named is DU 145, hormone-independent human prostate carcinoma cells. The data set can be described thus: Proliferation assay, DU145 (crystal violet). Particulars: DU145, 4 days; read-out: Inhibition of DU145 cell proliferation IC50. The data set is classed as cell-based.
The subject of data set [8] is MOLM-13 human acute myeloid leukemia cells. The data set can be described thus: Proliferation assay, MOLM-13 (Cell Titre-Glo). The data set is classed as cell-based. As to conditions: MOLM-13, 72-hour exposure; read-out: Inhibition of MOLM-13 cell proliferation IC50. As for the experimental part:
(§2) Cultivated tumour cells (HeLa, human cervical tumour cells, ATCC CCL-2; NCI-H460, human non-small cell lung carcinoma cells, ATCC HTB-177; A2780, human ovarian carcinoma cells, ECACC #93112519; DU 145, hormone-independent human prostate carcinoma cells, ATCC HTB-81; HeLa-MaTu-ADR, multidrug-resistant human cervical carcinoma cells, EPO-GmbH Berlin; Caco-2, human colorectal carcinoma cells, ATCC HTB-37; B16F10, mouse melanoma cells, ATCC CRL-6475) were plated at a density of 5,000 cells/well (DU145, HeLa-MaTu-ADR), 3,000 cells/well (NCI-H460, HeLa), 2,500 cells/well (A2780), 1,500 cells/well (Caco-2), or 1,000 cells/well (B16F10) in a 96-well multititer plate in 200 μL of their respective growth medium supplemented 10% fetal calf serum. After 24 hours, the cells of one plate (zero-point plate) were stained with crystal violet (see below), while the medium of the other plates was replaced by fresh culture medium (200 μl), to which the test substances were added in various concentrations (0 μM, as well as in the range of 0.001-10 μM; the final concentration of the solvent dimethyl sulfoxide was 0.5%). The cells were incubated for 4 days in the presence of test substances. Cell proliferation was determined by staining the cells with crystal violet: the cells were fixed by adding 20 μl/measuring point of an 11% glutaric aldehyde solution for 15 minutes at room temperature. After three washing cycles of the fixed cells with water, the plates were dried at room temperature. The cells were stained by adding 100 μl/measuring point of a 0.1% crystal violet solution (pH 3.0). After three washing cycles of the stained cells with water, the plates were dried at room temperature. The dye was dissolved by adding 100 μl/measuring point of a 10% acetic acid solution. The extinction was determined by photometry at a wavelength of 595 nm. The change of cell number, in percent, was calculated by normalization of the measured values to the extinction values of the zero-point plate (=0%) and the extinction of the untreated (0 μm) cells (=100%). The IC50 values (inhibitory concentration at 50% of maximal effect) were determined by means of a 4 parameter fit. Non-adherent MOLM-13 human acute myeloid leukemia cells (DSMZ ACC 554) were seeded at a density of 5,000 cells/well in a 96-well multititer plate in 100 μL of growth medium supplemented 10% fetal calf serum. After 24 hours, cell viability of one plate (zero-point plate) was determined with the Cell Titre-Glo Luminescent Cell Viability Assay (Promega), while 50 μL of test compound containing medium was added to the wells of the other plates (final concentrations in the range of 0.001-10 μM and DMSO controls; the final concentration of the solvent dimethyl sulfoxide was 0.5%). Cell viability was assessed after 72-hour exposure with the Cell Titre-Glo Luminescent Cell Viability Assay (Promega).

The subject of data set [9] is A2780, human ovarian carcinoma cells. Put plainly: Proliferation assay, A2780 (crystal violet). The data set is classed as cell-based. Particulars: A2780, 4 days; read-out: Inhibition of A2780 cell proliferation IC50. As for the experimental part: as §2

In general, solubility refers to the dissolved amount per volume that the medium holds. In the case of `COc1cc(F)ccc1-c1cc(Nc2cc(CS(C)(=N)=O)ccn2)ncc1F` (single isomer, unassigned; (-)) [Example 3, (−)-5-Fluoro-4-(4-fluoro-2-methoxyphenyl)-N-{4-[(S-methylsulfonimidoyl)methyl]pyridin-2-yl}pyridin-2-amine], the IC50 in [1] worked out at 310 nM; in [2], 100 nM; in data set [3], 65 nM; in data set [5], 58 nM; in [6], 37 nM; in data set [7], 37 nM. For the same compound, the IC50 is 40 nM in data set [8] and 52 nM in data set [9]. The solubility at 24 h in data set [4] (citrate buffer, pH 4, aqueous buffer, thermodynamic from solid, read-out: Solubility in aqueous Citrate buffer pH4) came out at 699 µg/mL (≈ 1730 µM).
With `COc1cc(F)ccc1-c1cc(Nc2cc(CS(C)(=N)=O)cc(C(F)(F)F)n2)ncc1F` (single isomer, unassigned; (-)) [Example 23, (−)-5-Fluoro-4-(4-fluoro-2-methoxyphenyl)-N-{4-[(S-methylsulfonimidoyl)methyl]-6-(trifluoromethyl)pyridin-2-yl}pyridin-2-amine], the IC50 in [1] is 47 nM; in data set [2], 30 nM; in data set [3], 35 nM; in data set [5], 34 nM; in data set [6], 30 nM; in [7], 34 nM. Moreover, the IC50 was determined as 10 nM in [8] and 11 nM in data set [9]. Further, in [4], the “Solubility in aqueous Citrate buffer pH4” value is given as 45 mg/l.
